{"source": "paper PMC10449633", "about": "(Nature Chemical Biology, 2023)", "biological_target": "T1, Sec61 (Homo sapiens, UniProt P61619)", "T1 construct": "endogenous in cells", "T1 sequence (P61619 whole entry)": "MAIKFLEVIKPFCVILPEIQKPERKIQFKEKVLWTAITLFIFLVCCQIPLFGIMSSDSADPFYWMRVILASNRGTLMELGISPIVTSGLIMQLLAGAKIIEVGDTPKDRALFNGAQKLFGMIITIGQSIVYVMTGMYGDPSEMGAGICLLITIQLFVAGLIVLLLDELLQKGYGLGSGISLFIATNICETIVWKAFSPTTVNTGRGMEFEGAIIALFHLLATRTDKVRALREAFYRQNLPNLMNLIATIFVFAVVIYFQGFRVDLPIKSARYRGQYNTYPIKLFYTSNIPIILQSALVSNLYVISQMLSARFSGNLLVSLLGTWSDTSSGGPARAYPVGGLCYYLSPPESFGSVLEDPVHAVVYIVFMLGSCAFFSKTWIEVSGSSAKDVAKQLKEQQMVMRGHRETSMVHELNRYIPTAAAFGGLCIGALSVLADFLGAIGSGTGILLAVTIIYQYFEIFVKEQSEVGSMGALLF", "T1 sequence (P60059 whole entry, further chain)": "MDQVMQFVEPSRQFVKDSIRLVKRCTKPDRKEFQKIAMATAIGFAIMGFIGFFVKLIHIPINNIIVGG", "T1 sequence (P60468 whole entry, further chain)": "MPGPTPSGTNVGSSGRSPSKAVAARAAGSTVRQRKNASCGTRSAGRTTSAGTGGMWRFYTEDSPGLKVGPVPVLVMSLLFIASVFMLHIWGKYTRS", "assay": "signal peptide-GLuc (SP-GLuc) reporter panel, 89 constructs", "type": "cell-based", "conditions": "read-out: IC50", "text": "The heat map depicts IC50 values calculated from each SP-GLuc dose–response curve. d, Arthritis was induced in BALB/c mice with antibodies specific for type II collagen (mAb) on day 0 and endotoxin on day 3. On day 4, when the disease was present in all animals, mice were randomized and treated for 2 weeks with thrice weekly (QODx3) or weekly (QW) intravenous administration of vehicle or KZR-8445 or intraperitoneal administration of dexamethasone. Clinical scores (0–4 per paw; n = 10 per group) and body weights were followed until day 14. Data are presented as mean values ± s.d. mAb, monoclonal antibody. Source data\nTo investigate the effects of KZR-8445 on secretory and membrane protein biogenesis and to establish Sec61α as the relevant target, we quantified the secretion of a doxycycline-inducible Gaussia luciferase (GLuc) reporter fused to the C-terminus of two full-length pro-inflammatory cytokines, interleukin-2 (IL-2) (which contains a cleavable signal peptide) and tumor necrosis factor-alpha (TNFα) (which contains an N-terminal transmembrane anchor). […] KZR-8445 is structurally related to CT8, which discriminates among Sec61 clients based largely on their N-terminal signal peptide. […] We also directly compared KZR-8445 to mycolactone A/B, a structurally distinct and relatively client-nonselective Sec61 inhibitor[8],[25], for their ability to discriminate between vascular cell adhesion molecule (VCAM) and preprolactin (pPL) signal peptides.", "note": "Like-named read-outs stand apart in the source and are kept apart here. Square brackets hold non-standard residues; d marks the D form. Peptide text beside a SMILES is read from it. NMeTrp(1-(4-Br-benzyl)) = CN[C@@H](Cc1cn(Cc2ccc(Br)cc2)c2ccccc12)C(=O)O; Butanoyl(2R-oxy,4-CN) = N#CCC[C@@H](O)C(=O)O; Abu(4,4,4-F3) = N[C@@H](CC(F)(F)F)C(=O)O; NMeL = CN[C@@H](CC(C)C)C(=O)O; NMeA = CN[C@@H](C)C(=O)O", "data": [{"smiles": "CC(C)C[C@@H]1NC(=O)[C@H](Cc2cn(Cc3ccc(Br)cc3)c3ccccc23)N(C)C(=O)[C@H](CC(F)(F)F)NC(=O)[C@H](CC(C)C)N(C)C(=O)[C@H](CC(F)(F)F)NC(=O)[C@@H](CCC#N)OC(=O)[C@H](C)N(C)C1=O", "note": "[KZR-0508445] (cyclo(L[NMeA][Butanoyl(2R-oxy,4-CN)][Abu(4,4,4-F3)][NMeL][Abu(4,4,4-F3)][NMeTrp(1-(4-Br-benzyl))]))", "values": [{"measurement": "IC50", "setting": "ADPGK signal peptide-GLuc reporter", "result": 540, "unit": "nM"}, {"measurement": "IC50", "setting": "ANGPTL3 signal peptide-GLuc reporter", "result": 49.4, "unit": "nM"}, {"measurement": "IC50", "setting": "APOC1 signal peptide-GLuc reporter", "result": 135, "unit": "nM"}, {"measurement": "IC50", "setting": "APP signal peptide-GLuc reporter", "result": 449, "unit": "nM"}, {"measurement": "IC50", "setting": "AXL signal peptide-GLuc reporter", "result": 13.8, "unit": "nM"}, {"measurement": "IC50", "setting": "BCAN signal peptide-GLuc reporter", "result": 142, "unit": "nM"}, {"measurement": "IC50", "setting": "C1S signal peptide-GLuc reporter", "result": 383, "unit": "nM"}, {"measurement": "IC50", "setting": "CALCA signal peptide-GLuc reporter", "result": 721, "unit": "nM"}, {"measurement": "IC50", "setting": "CALCB signal peptide-GLuc reporter", "result": 972, "unit": "nM"}, {"measurement": "IC50", "setting": "CD40 signal peptide-GLuc reporter", "result": 11300, "unit": "nM"}, {"measurement": "IC50", "setting": "CD47 signal peptide-GLuc reporter", "result": 373, "unit": "nM"}, {"measurement": "IC50", "setting": "CD96 signal peptide-GLuc reporter", "result": 29.2, "unit": "nM"}, {"measurement": "IC50", "setting": "CD274 signal peptide-GLuc reporter", "result": 93.3, "unit": "nM"}, {"measurement": "IC50", "setting": "CDH1 signal peptide-GLuc reporter", "result": 811, "unit": "nM"}, {"measurement": "IC50", "setting": "CDH2 signal peptide-GLuc reporter", "result": 15.5, "unit": "nM"}, {"measurement": "IC50", "setting": "CDH5 signal peptide-GLuc reporter", "result": 76, "unit": "nM"}, {"measurement": "IC50", "setting": "CNPY2 signal peptide-GLuc reporter", "result": 394, "unit": "nM"}, {"measurement": "IC50", "setting": "CPD signal peptide-GLuc reporter", "result": 694, "unit": "nM"}, {"measurement": "IC50", "setting": "CR1L signal peptide-GLuc reporter", "result": 61.3, "unit": "nM"}, {"measurement": "IC50", "setting": "CSF2RB signal peptide-GLuc reporter", "result": 652, "unit": "nM"}, {"measurement": "IC50", "setting": "CTLA4 signal peptide-GLuc reporter", "result": 343, "unit": "nM"}, {"measurement": "IC50", "setting": "DDRGK1 signal peptide-GLuc reporter", "result": 1850, "unit": "nM"}, {"measurement": "IC50", "setting": "DMKN signal peptide-GLuc reporter", "result": 2630, "unit": "nM"}, {"measurement": "IC50", "setting": "DNAJB11 signal peptide-GLuc reporter", "result": 4360, "unit": "nM"}, {"measurement": "IC50", "setting": "ERBB2 signal peptide-GLuc reporter", "result": 536, "unit": "nM"}, {"measurement": "IC50", "setting": "F3 signal peptide-GLuc reporter", "result": 162, "unit": "nM"}, {"measurement": "IC50", "setting": "FGF23 signal peptide-GLuc reporter", "result": 28.2, "unit": "nM"}, {"measurement": "IC50", "setting": "FLT3 signal peptide-GLuc reporter", "result": 360, "unit": "nM"}, {"measurement": "IC50", "setting": "FNDC10 signal peptide-GLuc reporter", "result": 726, "unit": "nM"}, {"measurement": "IC50", "setting": "FURIN signal peptide-GLuc reporter", "result": 4740, "unit": "nM"}, {"measurement": "IC50", "setting": "GAS6 signal peptide-GLuc reporter", "result": 118, "unit": "nM"}, {"measurement": "IC50", "setting": "HJV signal peptide-GLuc reporter", "result": 427, "unit": "nM"}, {"measurement": "IC50", "setting": "HLA-G signal peptide-GLuc reporter", "result": 39.2, "unit": "nM"}, {"measurement": "IC50", "setting": "HSPA13 signal peptide-GLuc reporter", "result": 1110, "unit": "nM"}, {"measurement": "IC50", "setting": "IGF1R signal peptide-GLuc reporter", "result": 814, "unit": "nM"}, {"measurement": "IC50", "setting": "IL1RAP signal peptide-GLuc reporter", "result": 101, "unit": "nM"}, {"measurement": "IC50", "setting": "IL4R signal peptide-GLuc reporter", "result": 32, "unit": "nM"}, {"measurement": "IC50", "setting": "IL4 signal peptide-GLuc reporter", "result": 359, "unit": "nM"}, {"measurement": "IC50", "setting": "IL5RA signal peptide-GLuc reporter", "result": 1320, "unit": "nM"}, {"measurement": "IC50", "setting": "IL5 signal peptide-GLuc reporter", "result": 1300, "unit": "nM"}, {"measurement": "IC50", "setting": "IL6R signal peptide-GLuc reporter", "result": 92.3, "unit": "nM"}, {"measurement": "IC50", "setting": "IL6ST signal peptide-GLuc reporter", "result": 56.5, "unit": "nM"}, {"measurement": "IC50", "setting": "IL6 signal peptide-GLuc reporter", "result": 155, "unit": "nM"}, {"measurement": "IC50", "setting": "IL7 signal peptide-GLuc reporter", "result": 5.23, "unit": "nM"}, {"measurement": "IC50", "setting": "IL10 signal peptide-GLuc reporter", "result": 434, "unit": "nM"}, {"measurement": "IC50", "setting": "IL11 signal peptide-GLuc reporter", "result": 183, "unit": "nM"}, {"measurement": "IC50", "setting": "IL12B signal peptide-GLuc reporter", "result": 109, "unit": "nM"}, {"measurement": "IC50", "setting": "IL12RB1 signal peptide-GLuc reporter", "result": 64.4, "unit": "nM"}, {"measurement": "IC50", "setting": "IL13 signal peptide-GLuc reporter", "result": 59.1, "unit": "nM"}, {"measurement": "IC50", "setting": "IL15RA signal peptide-GLuc reporter", "result": 294, "unit": "nM"}, {"measurement": "IC50", "setting": "IL15 signal peptide-GLuc reporter", "result": 116, "unit": "nM"}, {"measurement": "IC50", "setting": "IL17A signal peptide-GLuc reporter", "result": 318, "unit": "nM"}, {"measurement": "IC50", "setting": "IL17F signal peptide-GLuc reporter", "result": 228, "unit": "nM"}, {"measurement": "IC50", "setting": "IL17RA signal peptide-GLuc reporter", "result": 408, "unit": "nM"}, {"measurement": "IC50", "setting": "IL23A signal peptide-GLuc reporter", "result": 425, "unit": "nM"}, {"measurement": "IC50", "setting": "IL23R signal peptide-GLuc reporter", "result": 366, "unit": "nM"}, {"measurement": "IC50", "setting": "ITGA3 signal peptide-GLuc reporter", "result": 18300, "unit": "nM"}, {"measurement": "IC50", "setting": "ITGB3 signal peptide-GLuc reporter", "result": 106, "unit": "nM"}, {"measurement": "IC50", "setting": "ITGB5 signal peptide-GLuc reporter", "result": 89.1, "unit": "nM"}]}]}
